Measured values: patent EP0325016A1, “Antiperspirants with alpha-2-adrenergic amine activity” (Bristol-Myers Company, priority 1988, dated 1989)
Structures can show the parent of a compound that is named as a salt.

Tested on: rat foot pad
Test: Inhibition of sweat in the rat foot pad (iodine/starch count of activated sweat glands, test foot vs control foot)
Type: in vivo, Sprague Dawley rats
Conditions: for Approx. % Inhibition: topical on hind foot pads, photo 40 minutes post treatment
Experimental: To test the effectiveness of the adrenergic amines encompassed in this invention in inhibiting perspiration the following tests were carried out.
A series of test solutions were prepared by dissolving various quantities of xylometazoline HCl, oxymetazoline HCl and naphazoline HCl in freshly prepared distilled water. In the case of xylometazoline HCl 0.003%, 0.03%, 0.15% and 0.3% solutions were prepared. In the cases for oxymetazoline HCl and naphazoline HCl 0.15% solutions were made. The control material is distilled water.
• A. Prior to testing, rats are routinely acclimated to the laboratory environment for seven days and gross observations are made to ensure good health of animals to be tested. • B. Sprague Dawley rats, male and/or female (175-250 gm) are selected for test and identified by cage label and ear tag number. • C. A minimum of 6 animals is used in testing each solution.
• A. Test room should be maintained at a temperature of 78/± 2/F. • B. • 1. Test animals are injected intramuscularly with Innovar Vet\)\ (.01 ml/100 gm body wt.) by use of a 0.25 ml tuberculin syringe with a 26-27 gauge needle. Animals are then returned to their cages. • 2. […] Both hind feet are then swabbed with 70% ethyl alcohol (ETOH) to remove any debris. • 4. The four interdigital palmar foot pads on one hind foot are then treated with test material while the opposite hind foot is treated with the control material. • 5. After treatment of all animals, an iodine solution (2% in 95% ETOH wt./vol.) is applied to both hind feet. • 6. 30 minutes post treatment the hind feet are then painted with a suspension of starch and castor oil (50/50, wt./vol.). • 7. 40 minutes post treatment Polaroid photos (3X, using Polaroid Type Film 669) are taken of both hind feet in the same frame.
• 1. The number of activated sweat glands in each of the four palmar foot pads is quantitated by manually counting the black dots observed in the photo of the control and test treated feet. • 2. The ratio of the total number of secreting sweat glands on the control foot vs the total number of secreting glands on the test foot is used to estimate the percent inhibition of sweat in the rat foot pad. • 3. The following formula is used to calculate activity: Percent inhibition of sweat in the rat foot pad = [formula]

[1] = Concentration tested 0.15% in distilled water

Structure (SMILES)	Approx. % Inhibition [1]	Approx. % Inhibition (Concentration tested 0.003% in distilled water)	Approx. % Inhibition (Concentration tested 0.03% in distilled water)	Approx. % Inhibition (Concentration tested 0.3% in distilled water)	perspiration inhibition (result in words) (summary of Table I, concentrations 0.003-0.3%)
c1ccc2c(CC3=NCCN3)cccc2c1 [Naphazoline HCl, naphazoline HCl]	~95%	–	–	–	–
Cc1cc(C(C)(C)C)c(O)c(C)c1CC1=NCCN1 [Oxymetazoline HCl, oxymetazoline HCl]	~92%	–	–	–	–
Cc1cc(C(C)(C)C)cc(C)c1CC1=NCCN1 [Xylometazoline HCl, xylometazoline HCl]	~80%	~30%	~50%	~88%	a dose response has been demonstrated
